Assay results published in patent US8664257B2, “Oxygen-substituted 3-heteroaroylamino-propionic acid derivatives and their use as pharmaceuticals” (Sanofi, priority 2010, dated 2014).
Like-named read-outs stand apart in the source and are kept apart here. Values belong to the compound of their own block, whether it stands above or below them.

Molecular target: T1, Recombinant human cathepsin A (Homo sapiens, UniProt P10619)
T1 construct: Recombinant human cathepsin A (residues 29-480, with a C-terminal 10-His tag); 10-His (C); purchased R&D Systems 1049-SE
T1 sequence (P10619 29-312 limits assumed): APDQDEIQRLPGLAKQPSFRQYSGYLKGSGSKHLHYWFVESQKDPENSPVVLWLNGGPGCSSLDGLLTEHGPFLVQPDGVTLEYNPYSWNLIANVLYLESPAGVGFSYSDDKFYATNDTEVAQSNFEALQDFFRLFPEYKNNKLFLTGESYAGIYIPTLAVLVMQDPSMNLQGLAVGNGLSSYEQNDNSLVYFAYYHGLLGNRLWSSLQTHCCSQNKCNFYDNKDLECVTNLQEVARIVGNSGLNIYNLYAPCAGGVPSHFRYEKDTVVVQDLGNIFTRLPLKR
T1 sequence (P10619 327-480 limits assumed): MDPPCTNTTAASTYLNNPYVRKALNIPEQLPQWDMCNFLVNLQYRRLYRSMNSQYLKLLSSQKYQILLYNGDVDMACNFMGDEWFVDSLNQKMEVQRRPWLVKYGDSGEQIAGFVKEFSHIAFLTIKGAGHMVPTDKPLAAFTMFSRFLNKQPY
Test: Cathepsin A inhibitory activity
Format: biochemical
Method: a) Cathepsin A Inhibitory Activity
Recombinant human cathepsin A (residues 29-480, with a C-terminal 10-His tag; R&D Systems, #1049-SE) was proteolytically activated with recombinant human cathepsin L (R&D Systems, #952-CY). Briefly, cathepsin A was incubated at 10 μg/ml with cathepsin L at 1 μg/ml in activation buffer (25 mM 2-(morpholin-4-yl)-ethanesulfonic acid (MES), pH 6.0, containing 5 mM dithiothreitol (DTT)) for 15 min at 37° C. Cathepsin L activity was then stopped by the addition of the cysteine protease inhibitor E-64 (N-(trans-epoxysuccinyl)-L-leucine-4-guanidinobutylamide; Sigma-Aldrich, #E3132; dissolved in activation buffer/DMSO) to a final concentration of 10 μM.
The activated cathepsin A was diluted in assay buffer (25 mM MES, pH 5.5, containing 5 mM DTT) and mixed with the test compound (dissolved in assay buffer containing (v/v) 3% DMSO) or, in the control experiments, with the vehicle in a multiple assay plate. After incubation for 15 min at room temperature, as substrate then bradykinin carrying an N-terminal®Bodipy FL (4,4-difluoro-5,7-dimethyl-4-bora-3a,4a-diaza-s-indacene-3-propionyl) label (JPT Peptide Technologies GmbH; dissolved in assay buffer) was added to the mixture. The final concentration of cathepsin A was 833 ng/ml and the final concentration of labeled bradykinin 2 μM. After incubation for 15 min at room temperature the reaction was stopped by the addition of stop buffer (130 mM 2-(4-(2-hydroxy-ethyl)-piperazin-1-yl)-ethanesulfonic acid, pH 7.4, containing (v/v) 0.013% Triton X-100, 0.13% Coating Reagent 3 (Caliper Life Sciences), 6.5% DMSO and 20 μM ebelactone B (Sigma, # E0886)).
Uncleaved substrate and product were then separated by a microfluidic capillary electrophoresis on a LabChip® 3000 Drug Discovery System (12-Sipper-Chip; Caliper Life Sciences) and quantified by determination of the respective peak areas. Substrate turnover was calculated by dividing product peak area by the sum of substrate and product peak areas, and the enzyme activity and the inhibitory effect of the test compound thus quantified. From the percentage of inhibition of cathepsin A activity observed with the test compound at several concentrations, the inhibitory concentration IC50, i.e. the concentration which effects 50% inhibition of enzyme activity was, calculated.

[1] = pharmacological test "Cathepsin A inhibitory activity", IC50 given as class A/B/C, read-out: Activity (2): Cathepsin A inhibitory activity, IC50 class
[2] = read-out: Activity (2): Cathepsin A inhibitory activity (IC50 class)
[3] = read-out: Activity (2): Cathepsin A inhibitory activity, IC50 class
[4] = recombinant human cathepsin A 833 ng/ml, Bodipy FL-labeled bradykinin 2 μM, pH 5.5, read-out: CATH-A IC50
[5] = recombinant human cathepsin A, read-out: Activity (2): Cathepsin A inhibitory activity, IC50 class

SMILES: O=C(O)CC(NC(=O)c1cc(O)n(-c2ccccc2Cl)n1)c1cccc(C(F)(F)F)c1 (centres unmarked) [Example 206]
IC50 [1]: 100 to 1000 nM

SMILES: Cc1ccccc1[C@H](CC(=O)O)NC(=O)c1cc(OCC(C)(C)C)n(-c2ccccc2F)n1 [Example 632]
IC50 [2]: < 100 nM

SMILES: O=C(O)C[C@H](NC(=O)c1cc(O)n(-c2ccc(F)cc2F)n1)c1ccccc1Cl [Example 502, (S)-3-(2-Chloro-phenyl)-3-{[1-(2,4-difluoro-phenyl)-5-hydroxy-1H-pyrazole-3-carbonyl]-amino}-propionic acid]
IC50 [4]: 116 nM | IC50 [5]: 100 to 1000 nM

SMILES: Cc1ccc(C(CC(=O)O)NC(=O)c2cc(O)n(-c3cc(C)ccc3C)n2)cc1 (centres unmarked) [Example 50]
IC50 [3]: 1000 to 30000 nM

SMILES: Cc1ccc(C)c(-n2nc(C(=O)NC(CC(=O)O)c3ccc(Cl)cc3)cc2O)c1 (centres unmarked) [Example 45]
IC50 [3]: 1000 to 30000 nM

SMILES: O=C(O)CC(NC(=O)c1cc(O)n(-c2cccc(F)c2)n1)c1ccc(Cl)c(Cl)c1 (centres unmarked) [Example 328]
IC50 [3]: 100 to 1000 nM

SMILES: Cc1cccc([C@H](CC(=O)O)NC(=O)c2cc(OCC(=O)C(C)(C)C)n(-c3ccccc3F)n2)c1 [Example 805, (S)-3-{[5-(3,3-Dimethyl-2-oxo-butoxy)-1-(2-fluoro-phenyl)-1H-pyrazole-3-carbonyl]-amino}-3-m-tolyl-propionic acid]
IC50 [3]: < 100 nM

SMILES: O=C(O)CC(NC(=O)c1cc(O)n(-c2ccc(F)cc2)n1)c1cccc(Cl)c1Cl (centres unmarked) [Example 352]
IC50 [3]: 100 to 1000 nM

SMILES: COc1ccc([C@H](CC(=O)O)NC(=O)c2cc(O)n(-c3ccccc3Cl)n2)cn1 [Example 139]
IC50 [1]: 100 to 1000 nM

SMILES: COc1ccc(F)c(C(CC(=O)O)NC(=O)c2cc(O)n(-c3ccccc3F)n2)c1 (centres unmarked) [Example 553, 3-(2-Fluoro-5-methoxy-phenyl)-3-{[1-(2-fluoro-phenyl)-5-hydroxy-1H-pyrazole-3-carbonyl]-amino}-propionic acid]
IC50 [2]: 100 to 1000 nM | IC50 [4]: 732 nM

SMILES: COc1cc(C(=O)N[C@@H](CC(=O)O)c2ccccc2C)nn1-c1ccccc1 [Example 534, (S)-3-[(5-Methoxy-1-phenyl-1H-pyrazole-3-carbonyl)-amino]-3-o-tolyl-propionic acid]
IC50 [5]: < 100 nM

SMILES: COc1ccc(Cl)cc1C(CC(=O)O)NC(=O)c1cc(O)n(-c2ccc(Cl)cc2)n1 (centres unmarked) [Example 275]
IC50 [3]: 1000 to 30000 nM

SMILES: O=C(O)CC(NC(=O)c1cc(O)n(-c2cccc(F)c2)n1)c1ccccc1F (centres unmarked) [Example 308]
IC50 [3]: 100 to 1000 nM

SMILES: COc1ccccc1[C@H](CC(=O)O)NC(=O)c1cc(O)n(-c2ccccc2)n1 [Example 100]
IC50 [3]: 100 to 1000 nM

SMILES: CC(C)[C@@](C)(O)COc1cc(C(=O)N[C@@H](CC(=O)O)c2ccccc2F)nn1-c1ccccc1F [Example 862, (S)-3-(2-Fluoro-phenyl)-3-{[1-(2-fluoro-phenyl)-5-((R)-2-hydroxy-2,3-dimethyl-butoxy)-1H-pyrazole-3-carbonyl]-amino}-propionic acid]
IC50 [3]: 100 to 1000 nM

SMILES: O=C(O)CC(NC(=O)c1cc(O)n(-c2ccccc2)n1)c1cc(Cl)ccc1Cl (centres unmarked) [Example 444, 3-(2,5-Dichloro-phenyl)-3-[(5-hydroxy-1-phenyl-1H-pyrazole-3-carbonyl)-amino]-propionic acid]
IC50 [4]: 83.1 nM | IC50 [5]: < 100 nM

SMILES: O=C(O)CC(NC(=O)c1cc(O)n(-c2cccc(F)c2)n1)c1cccc(C(F)(F)F)c1Cl (centres unmarked) [Example 323]
IC50 [3]: 100 to 1000 nM

SMILES: CC(C)(C)[C@](C)(O)COc1cc(C(=O)NC(CC(=O)O)Cc2ccccc2)nn1-c1ccccc1F (stereo partly drawn) [Example 818, 3-{[1-(2-Fluoro-phenyl)-5-((S)-2-hydroxy-2,3,3-trimethyl-butoxy)-1H-pyrazole-3-carbonyl]-amino}-4-phenyl-butyric acid]
IC50 [3]: < 100 nM

SMILES: Cc1ccccc1[C@H](CC(=O)O)NC(=O)c1cc(OC[C@](C)(O)C(C)(C)C)n(-c2ccccc2F)n1 (single isomer, unassigned) [Example 747]
IC50 [2]: < 100 nM | IC50 [4]: 14.7 nM

Now from value to compound:

IC50 [3]: 100 to 1000 nM
SMILES: O=C(O)C[C@H](NC(=O)c1cc(O)n(-c2ccccc2F)n1)c1ccccc1F [Example 118]

IC50 [3]: 1000 to 30000 nM
SMILES: COc1ccc(C(CC(=O)O)NC(=O)c2cc(O)n(-c3ccccc3)n2)c(C)c1C (centres unmarked) [Example 25]

IC50 [3]: 100 to 1000 nM
SMILES: COc1cccc([C@H](CC(=O)O)NC(=O)c2cc(O)n(-c3ccc(Cl)cc3)n2)c1OC [Example 283]

IC50 [2]: 1000 to 30000 nM | IC50 [4]: 4490 nM
SMILES: COc1ccc(-c2ccccc2)cc1C(CC(=O)O)NC(=O)c1cc(O)n(-c2ccccc2Cl)n1 (centres unmarked) [Example 562, 3-{[1-(2-Chloro-phenyl)-5-hydroxy-1H-pyrazole-3-carbonyl]-amino}-3-(4-methoxy-biphenyl-3-yl)-propionic acid]

IC50 [4]: 207 nM | IC50 [5]: 100 to 1000 nM
SMILES: O=C(O)C[C@H](NC(=O)c1cc(O)n(-c2ccc(Cl)cc2)n1)c1ccccc1Cl [Example 474, (S)-3-(2-Chloro-phenyl)-3-{[1-(4-chloro-phenyl)-5-hydroxy-1H-pyrazole-3-carbonyl]-amino}-propionic acid]

IC50 [1]: 100 to 1000 nM | IC50 [4]: 322 nM
SMILES: O=C(O)CC(NC(=O)c1cc(O)n(-c2ccccc2Cl)n1)c1cccc(C(F)(F)F)c1F (centres unmarked) [Example 221, 3-{[1-(2-Chloro-phenyl)-5-hydroxy-1H-pyrazole-3-carbonyl]-amino}-3-(2-fluoro-3-trifluoromethyl-phenyl)-propionic acid]

IC50 [1]: 100 to 1000 nM
SMILES: Cc1cccc(C(CC(=O)O)NC(=O)c2cc(O)n(-c3ccccc3Cl)n2)c1C (centres unmarked) [Example 220]

IC50 [5]: < 100 nM
SMILES: O=C(O)CC(NC(=O)c1cc(O)n(-c2ccc(F)cc2F)n1)c1ccc(-c2ccccn2)cc1 (centres unmarked) [Example 501]

IC50 [3]: 100 to 1000 nM
SMILES: COc1cccc([C@H](CC(=O)O)NC(=O)c2cc(O)n(-c3ccccc3F)n2)c1OC [Example 403]

IC50 [4]: 29800 nM | IC50 [5]: 1000 to 30000 nM
SMILES: O=C(O)CC(NC(=O)c1cc(O)n(-c2ccccc2Cl)n1)c1ccc(N2CCOCC2)cc1 (centres unmarked) [Example 505, 3-{[1-(2-Chloro-phenyl)-5-hydroxy-1H-pyrazole-3-carbonyl]-amino}-3-(4-morpholin-4-yl-phenyl)-propionic acid]

IC50 [3]: 1000 to 30000 nM
SMILES: O=C(O)CC(NC(=O)c1cc(O)n(-c2ccccc2)n1)c1cc(C(F)(F)F)cc(C(F)(F)F)c1 (centres unmarked) [Example 59]

IC50 [5]: < 100 nM
SMILES: COc1cc(C(=O)N[C@@H](CC(=O)NCc2ccno2)c2ccccc2C)nn1-c1ccccc1F [Example 934, 1-(2-Fluoro-phenyl)-5-methoxy-1H-pyrazole-3-carboxylic acid {(S)-2-[(isoxazol-5-ylmethyl)-carbamoyl]-1-o-tolyl-ethyl}-amide]

IC50 [2]: < 100 nM
SMILES: Cc1ccccc1[C@H](CC(=O)O)NC(=O)c1cc(OC[C@](C)(O)C2CC2)n(-c2ccccc2F)n1 (single isomer, unassigned) [Example 763]

IC50 [2]: < 100 nM
SMILES: Cc1ccccc1[C@H](CC(=O)O)NC(=O)c1cc(OCc2ccccc2C#N)n(-c2ccccc2F)n1 [Example 635, (S)-3-{[5-(2-Cyano-benzyloxy)-1-(2-fluoro-phenyl)-1H-pyrazole-3-carbonyl]-amino}-3-o-tolyl-propionic acid]

IC50 [4]: 137 nM | IC50 [5]: 100 to 1000 nM
SMILES: O=C(O)CC(NC(=O)c1cc(O)n(-c2ccccc2F)n1)c1cc(F)ccc1Cl (centres unmarked) [Example 475, 3-(2-Chloro-5-fluoro-phenyl)-3-{[1-(2-fluoro-phenyl)-5-hydroxy-1H-pyrazole-3-carbonyl]-amino}-propionic acid]

IC50 [3]: 100 to 1000 nM
SMILES: Cc1cccc([C@H](CC(=O)O)NC(=O)c2cc(O)n(-c3cccc(F)c3)n2)c1 [Example 317]

IC50 [1]: 100 to 1000 nM
SMILES: Cc1ccc(C(CC(=O)O)NC(=O)c2cc(O)n(-c3ccccc3F)n2)c(C)c1 (centres unmarked) [Example 247]

IC50 [3]: 1000 to 30000 nM
SMILES: Cc1ccc(C)c(-n2nc(C(=O)NC(CC(=O)O)c3ccc(F)c(F)c3)cc2O)c1 (centres unmarked) [Example 47]

IC50 [3]: 1000 to 30000 nM
SMILES: O=C(O)CC(NC(=O)c1cc(O)n(-c2ccccc2)n1)c1ccc(C(F)(F)F)cc1 (centres unmarked) [Example 71]
